Laboratory results reported in patent publication US20260306476A1, “ANTIBACTERIAL COMPOUND PBT2” (priority 2022, published 2026).
Read-outs that look alike come from different tables or passages of the source.

Legend:
[1] = system: non-typeable Haemophilus influenzae (NTHi) R2866; test: MIC of PBT2 alone (broth); format: cell-based
Method: (§1) The MIC of PBT2 against five non-typeable Haemophilus influenzae (NTHi) strains was determined (CLSI. 2022. Performance Standards for Antimicrobial Susceptibility Testing, 32nd Edition. Clinical and Laboratory Standards Institute).

[2] = system: non-typeable Haemophilus influenzae (NTHi) 723; test: MIC of PBT2 alone (broth); format: cell-based
Method: as §1

[3] = system: non-typeable Haemophilus influenzae (NTHi) ATCC49766; test: MIC of PBT2 alone (broth); format: cell-based
Method: as §1

[4] = system: non-typeable Haemophilus influenzae (NTHi) 86-028NP; test: MIC of PBT2 alone (broth); format: cell-based
Method: as §1

[5] = system: non-typeable Haemophilus influenzae (NTHi) 2019; test: MIC of PBT2 alone (broth); format: cell-based
Method: as §1

[6] = system: Neisseria gonorrhoeae ATCC49226; test: MIC of PBT2 and comparators against CLSI reference strain; format: cell-based
Excerpt: 13 multidrug resistant WHO strains of Neisseria gonorrhoeae were selected to cover antimicrobial resistance phenotypes to all the antibiotics currently used.

[7] = system: Neisseria gonorrhoeae strain WHO Z; test: MIC of Triton X-100 with/without PBT2; format: cell-based; conditions: 0.156 mg/L (sub-MIC) PBT2
Excerpt: Without wishing to be bound by theory, the inventors hypothesise that this may due to the fact PBT2 is a derivative of the iron chelator clioquinol and PBT2 has the capacity to chelate a range of heavy metals including iron. Genes encoding metal homeostasis proteins (blue dots) are presented in the volcano plot (FIG. 3). Metal homeostasis was previously identified as a crucial feature of gonococcal biology, and therefore it is postulated this may be an “Achilles' heel” with respect to Neisseria gonorrhoeae ionophore sensitivity. […] MpeR is an iron-repressed, AraC-like protein that regulates the mtr efflux locus (involved in antimicrobial susceptibility) in Neisseria gonorrhoeae. Up-regulation of mpeR (e. g. by PBT2) down-regulates MtrF and, in turn, would increase Neisseria gonorrhoeae sensitivity to the antimicrobial detergent, Triton X-100 (22). […] Thus, without wishing to be bound to theory, the inventors hypothesise that PBT2 may influence bacterial iron homeostasis and trigger general defence mechanisms, such as Mtr-mediated antimicrobial efflux, but the Mtr-system may be unable to protect against PBT2.

[8] = system: non-typeable Haemophilus influenzae (NTHi); test: Sensitivity across NTHi strains; format: cell-based; conditions: all strains tested
Method: as §1

Campylobacter jejuni = test: Sensitivity across Campylobacter jejuni strains; format: cell-based; conditions: all strains tested
Method: The MIC of PBT2 against three Campylobacter jejuni strains was determined. All strains tested were sensitive to PBT2.

[9] = Plasma drug level of PBT2 in clinical trial (NCT02249728); format: in vivo, human; conditions: 250 mg/day; MDR Neisseria gonorrhoeae
[10] = system: MDR Neisseria gonorrhoeae; test: RNA-seq expression profile analysis after PBT2 treatment; format: cell-based; conditions: for fold change in gene expression (up- or down-regulated) at 0.156 µg/mL / fold induction at 0.156 µg/mL: Neisseria gonorrhoeae
Method: Expression profile analysis using RNA-seq was performed to investigate the mode of action of PBT2 in killing Neisseria gonorrhoeae.

[11] = sub-MIC PBT2 0.156 mg/L, cut-off >=2-fold, P<0.05
[12] = up-regulated gene WHOZ_00323 (ABC transporter periplasmic binding protein, iron related)
[13] = up-regulated gene WHOZ_00324 (iron(III) ABC transporter permease)

CN(C)Cc1ccc2c(Cl)cc(Cl)c(O)c2n1 [PBT2, 5,7-dichloro-2-[(dimethylamino)methyl]quinolin-8-ol]
MIC [1]: 2.5 µg/mL
MIC [2]: 1.25 µg/mL
MIC [3]: 0.312 µg/mL
MIC [4]: 2.5 µg/mL
MIC [5]: 2.5 µg/mL
MIC ([6]; ATCC49226, ATCC49226, agar): 0.625 µg/mL
MIC ([6]; ATCC49226, ATCC49226, broth): 0.312 µg/mL
effect on sensitivity to Triton X-100 [7]: increased the sensitivity
sensitivity [8]: sensitive
sensitivity (Campylobacter jejuni): sensitive
plasma AUC relative to PBT2 MIC (313 ng/ml) [9]: 5 fold
fold change in gene expression (up- or down-regulated) at 0.156 µg/mL ([10]; read-out: Fold Change, down-regulated gene WHOZ_00293 (Periplasmic protein)): 3.56
fold change in gene expression (up- or down-regulated) at 0.156 µg/mL ([10]; read-out: Fold Change, down-regulated gene WHOZ_00873 (outer membrane protein)): 3.36
fold change in gene expression (up- or down-regulated) at 0.156 µg/mL ([10]; read-out: Fold Change, down-regulated gene WHOZ_00996 (Na(+)-translocating NADH-quinone reductase subunit D)): 3.25
fold change in gene expression (up- or down-regulated) at 0.156 µg/mL ([10]; read-out: Fold Change, down-regulated gene WHOZ_00998 (Na(+)-translocating NADH-quinone reductase subunit B)): 3.3
fold change in gene expression (up- or down-regulated) at 0.156 µg/mL ([10]; read-out: Fold Change, down-regulated gene WHOZ_01539 (NADH dehydrogenase subunit C)): 3.32
fold change in gene expression (up- or down-regulated) at 0.156 µg/mL ([10]; read-out: Fold Change, down-regulated gene WHOZ_01541 (NADH dehydrogenase subunit E)): 3.77
fold change in gene expression (up- or down-regulated) at 0.156 µg/mL ([10]; read-out: Fold Change, down-regulated gene WHOZ_01542 (NADH-quinone oxidoreductase, F subunit)): 3.57
fold change in gene expression (up- or down-regulated) at 0.156 µg/mL ([10]; read-out: Fold Change, down-regulated gene WHOZ_01545 (NADH-quinone oxidoreductase subunit H)): 3.58
fold change in gene expression (up- or down-regulated) at 0.156 µg/mL ([10]; read-out: Fold Change, down-regulated gene WHOZ_01546 (NADH dehydrogenase subunit I)): 4.11
fold change in gene expression (up- or down-regulated) at 0.156 µg/mL ([10]; read-out: Fold Change, down-regulated gene WHOZ_01547 (NADH dehydrogenase subunit J)): 3.8
fold change in gene expression (up- or down-regulated) at 0.156 µg/mL ([10]; read-out: Fold Change, down-regulated gene WHOZ_01548 (NADH dehydrogenase subunit K)): 4
fold change in gene expression (up- or down-regulated) at 0.156 µg/mL ([10]; read-out: Fold Change, down-regulated gene WHOZ_01549 (NADH:ubiquinone dehydrogenase, L subunit)): 3.95
fold change in gene expression (up- or down-regulated) at 0.156 µg/mL ([10]; read-out: Fold Change, down-regulated gene WHOZ_01550 (Predicted HKD family nuclease)): 3.73
fold change in gene expression (up- or down-regulated) at 0.156 µg/mL ([10]; read-out: Fold Change, down-regulated gene WHOZ_01551 (NADH dehydrogenase subunit M)): 3.68
fold change in gene expression (up- or down-regulated) at 0.156 µg/mL ([10]; read-out: Fold Change, down-regulated gene WHOZ_01552 (NADH dehydrogenase subunit N)): 3.41
fold change in gene expression (up- or down-regulated) at 0.156 µg/mL ([10]; read-out: Fold Change, down-regulated gene bfr (bacterioferritin), first entry): 8.2
fold change in gene expression (up- or down-regulated) at 0.156 µg/mL ([10]; read-out: Fold Change, down-regulated gene bfr (bacterioferritin), second entry): 7.73
fold change in gene expression (up- or down-regulated) at 0.156 µg/mL ([10]; read-out: Fold Change, down-regulated gene cysK (Cysteine synthetase)): 3.38
fold change in gene expression (up- or down-regulated) at 0.156 µg/mL ([10]; read-out: Fold Change, down-regulated gene nqrE): 3.48
fold change in gene expression (up- or down-regulated) at 0.156 µg/mL ([10]; read-out: Fold Change, down-regulated gene nqrF): 3.47
fold induction at 0.156 µg/mL ([10]; read-out: Fold Change, up-regulated gene WHOZ_00302 (MpeR)): 20.2
fold induction at 0.156 µg/mL ([10]; read-out: Fold Change, up-regulated gene WHOZ_00403 (putative lipoprotein)): 19.1
fold induction at 0.156 µg/mL ([10]; read-out: Fold Change, up-regulated gene WHOZ_00412 (putative ferredoxin)): 4.43
fold induction at 0.156 µg/mL ([10]; read-out: Fold Change, up-regulated gene WHOZ_00413 (Thioredoxin)): 7.01
fold induction at 0.156 µg/mL ([10]; read-out: Fold Change, up-regulated gene WHOZ_00880 (integral membrane protein)): 3.91
fold induction at 0.156 µg/mL ([10]; read-out: Fold Change, up-regulated gene WHOZ_01151 (TonB-dependent receptor plug domain-containing protein)): 4.75
fold induction at 0.156 µg/mL ([10]; read-out: Fold Change, up-regulated gene WHOZ_01152 (hemoglobin receptor)): 5.13
fold induction at 0.156 µg/mL ([10]; read-out: Fold Change, up-regulated gene WHOZ_01153 (hemoglobin receptor)): 3.89
fold induction at 0.156 µg/mL ([10]; read-out: Fold Change, up-regulated gene WHOZ_01683 (fetA)): 4.53
fold induction at 0.156 µg/mL ([10]; read-out: Fold Change, up-regulated gene WHOZ_01837 (outer membrane protein)): 3.91
fold induction at 0.156 µg/mL ([10]; read-out: Fold Change, up-regulated gene WHOZ_01985 (hypothetical periplasmic protein)): 5.49
fold induction at 0.156 µg/mL ([10]; read-out: Fold Change, up-regulated gene WHOZ_02005 (transferrin-binding protein-like)): 10.1
fold induction at 0.156 µg/mL ([10]; read-out: Fold Change, up-regulated gene WHOZ_02042 (TonB)): 11.9
fold induction at 0.156 µg/mL ([10]; read-out: Fold Change, up-regulated gene WHOZ_02043 (ExbB)): 10.5
fold induction at 0.156 µg/mL ([10]; read-out: Fold Change, up-regulated gene WHOZ_02044 (ExbD protein)): 12.5
fold induction at 0.156 µg/mL ([10]; read-out: Fold Change, up-regulated gene WP_003690577.1 (hypothetical protein)): 4.61
fold induction at 0.156 µg/mL ([10]; read-out: Fold Change, up-regulated gene WP_003690710.1 (hypothetical protein)): 8.64
fold induction at 0.156 µg/mL ([10]; read-out: Fold Change, up-regulated gene fumC (Fumarase C)): 12.2
fold induction at 0.156 µg/mL ([10]; sub-MIC PBT2 0.156 mg/L, read-out: up-regulation of mpeR): 20
fold induction at 0.156 µg/mL ([10]; sub-MIC PBT2 0.156 mg/L, read-out: up-regulation of seven genes): > 10
LogFC ([10]; down-regulated gene WHOZ_00293 (Periplasmic protein)): 1.83
LogFC ([10]; down-regulated gene WHOZ_00873 (outer membrane protein)): 1.75
LogFC ([10]; down-regulated gene WHOZ_00996 (Na(+)-translocating NADH-quinone reductase subunit D)): 1.70
LogFC ([10]; down-regulated gene WHOZ_00998 (Na(+)-translocating NADH-quinone reductase subunit B)): 1.72
LogFC ([10]; down-regulated gene WHOZ_01539 (NADH dehydrogenase subunit C)): 1.73
LogFC ([10]; down-regulated gene WHOZ_01541 (NADH dehydrogenase subunit E)): 1.92
LogFC ([10]; down-regulated gene WHOZ_01542 (NADH-quinone oxidoreductase, F subunit)): 1.83
LogFC ([10]; down-regulated gene WHOZ_01545 (NADH-quinone oxidoreductase subunit H)): 1.84
LogFC ([10]; down-regulated gene WHOZ_01546 (NADH dehydrogenase subunit I)): 2.04
LogFC ([10]; down-regulated gene WHOZ_01547 (NADH dehydrogenase subunit J)): 1.93
LogFC ([10]; down-regulated gene WHOZ_01548 (NADH dehydrogenase subunit K)): 2.00
LogFC ([10]; down-regulated gene WHOZ_01549 (NADH:ubiquinone dehydrogenase, L subunit)): 1.98
LogFC ([10]; down-regulated gene WHOZ_01550 (Predicted HKD family nuclease)): 1.90
LogFC ([10]; down-regulated gene WHOZ_01551 (NADH dehydrogenase subunit M)): 1.88
LogFC ([10]; down-regulated gene WHOZ_01552 (NADH dehydrogenase subunit N)): 1.77
LogFC ([10]; down-regulated gene bfr (bacterioferritin), first entry): 3.03
LogFC ([10]; down-regulated gene bfr (bacterioferritin), second entry): 2.95
LogFC ([10]; down-regulated gene cysK (Cysteine synthetase)): 1.76
LogFC ([10]; down-regulated gene nqrE): 1.80
LogFC ([10]; down-regulated gene nqrF): 1.80
regulation of genes encoding NADH-associated proteins ([10]; sub-MIC PBT2 0.156 mg/L, FIG. 3): down-regulated
number of down-regulated genes [10, 11]: 96 genes
number of up-regulated genes [10, 11]: 62 genes
LogFC ([10]; up-regulated gene WHOZ_00302 (MpeR)): 4.33
Fold Change [10, 12]: 5.44 fold
LogFC [10, 12]: 2.44
Fold Change [10, 13]: 3.74 fold
LogFC [10, 13]: 1.90
LogFC ([10]; up-regulated gene WHOZ_00403 (putative lipoprotein)): 4.26
LogFC ([10]; up-regulated gene WHOZ_00412 (putative ferredoxin)): 2.15
LogFC ([10]; up-regulated gene WHOZ_00413 (Thioredoxin)): 2.81
LogFC ([10]; up-regulated gene WHOZ_00880 (integral membrane protein)): 1.97
LogFC ([10]; up-regulated gene WHOZ_01151 (TonB-dependent receptor plug domain-containing protein)): 2.25
LogFC ([10]; up-regulated gene WHOZ_01152 (hemoglobin receptor)): 2.36
LogFC ([10]; up-regulated gene WHOZ_01153 (hemoglobin receptor)): 1.96
LogFC ([10]; up-regulated gene WHOZ_01683 (fetA)): 2.18
LogFC ([10]; up-regulated gene WHOZ_01837 (outer membrane protein)): 1.97
LogFC ([10]; up-regulated gene WHOZ_01985 (hypothetical periplasmic protein)): 2.46
LogFC ([10]; up-regulated gene WHOZ_02005 (transferrin-binding protein-like)): 3.33
LogFC ([10]; up-regulated gene WHOZ_02042 (TonB)): 3.58
LogFC ([10]; up-regulated gene WHOZ_02043 (ExbB)): 3.40
LogFC ([10]; up-regulated gene WHOZ_02044 (ExbD protein)): 3.64
LogFC ([10]; up-regulated gene WP_003690577.1 (hypothetical protein)): 2.20
LogFC ([10]; up-regulated gene WP_003690710.1 (hypothetical protein)): 3.11
LogFC ([10]; up-regulated gene fumC (Fumarase C)): 3.61
